# Test results published in patent US9113629B2, “4-amino-6-(4-substituted-phenyl)-picolinates and 6-amino-2-(4-substituted-phenyl)-pyrimidine-4-carboxylates and their use as herbicides” (DOW AGROSCIENCES LLC, priority 2013, dated 2015).
# Tested on: Key Grass and Sedge Weeds as well as Grass Crops
# Assay: Post-emergent Test II herbicidal activity (Table 6)
# Type: in vivo
# Conditions: Triticum aestivum, post-emergence, 336 h, TRZSS (wheat), application rate 140 g ai/ha, read-out: Visual Growth Reduction (%) 14 Days After Application, TRZSS
# In short: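 Compounds, dissolved in 97:3 acetone/DMSO and diluted into an aqueous carrier containing crop oil concentrate and Triton X-155, are applied over the top of young plants at 187 L/ha. Injury is scored visually at 14 d, 0% meaning no effect and 100% complete kill.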
row,Structure (SMILES),pest or weed control at 140 g/ha [%]
1,"Cc1c(-c2ccc(Br)cc2)nc(C(=O)O)c(Cl)c1N [Compound 78, 4-Amino-6-(4-bromophenyl)-3-chloro-5-methylpicolinic acid]",45 to 59

# Same assay, conditions: post-emergence, 336 h, CYPES: yellow nutsedge (Cyperus esculentus), application rate 70 g ai/ha, read-out: Visual Growth Reduction (%) 14 Days After Application, CYPES
row,Structure (SMILES),pest or weed control at 70 g/ha [%]
1,"Cc1c(-c2ccc(Br)cc2)nc(C(=O)O)c(Cl)c1N [Compound 78, 4-Amino-6-(4-bromophenyl)-3-chloro-5-methylpicolinic acid]",0 to 29

# Same assay, conditions: post-emergence, 336 h, CYPES: yellow nutsedge (Cyperus esculentus), application rate 140 g ai/ha, read-out: Visual Growth Reduction (%) 14 Days After Application, CYPES
row,Structure (SMILES),pest or weed control at 140 g/ha [%]
1,"Cc1c(-c2ccc(Br)cc2)nc(C(=O)O)c(Cl)c1N [Compound 78, 4-Amino-6-(4-bromophenyl)-3-chloro-5-methylpicolinic acid]",95 to 100

# Same assay, conditions: post-emergence, 336 h, DIGSA: crabgrass (Digitaria sanguinalis), application rate 70 g ai/ha, read-out: Visual Growth Reduction (%) 14 Days After Application, DIGSA
row,Structure (SMILES),pest or weed control at 70 g/ha [%]
1,"Cc1c(-c2ccc(Br)cc2)nc(C(=O)O)c(Cl)c1N [Compound 78, 4-Amino-6-(4-bromophenyl)-3-chloro-5-methylpicolinic acid]",0 to 29

# Same assay, conditions: post-emergence, 336 h, DIGSA: crabgrass (Digitaria sanguinalis), application rate 140 g ai/ha, read-out: Visual Growth Reduction (%) 14 Days After Application, DIGSA
row,Structure (SMILES),pest or weed control at 140 g/ha [%]
1,"Cc1c(-c2ccc(Br)cc2)nc(C(=O)O)c(Cl)c1N [Compound 78, 4-Amino-6-(4-bromophenyl)-3-chloro-5-methylpicolinic acid]",0 to 29

# Same assay, conditions: post-emergence, 336 h, ECHCG: barnyardgrass (Echinochloa crus-galli), application rate 70 g ai/ha, read-out: Visual Growth Reduction (%) 14 Days After Application, ECHCG
row,Structure (SMILES),pest or weed control at 70 g/ha [%]
1,"Cc1c(-c2ccc(Br)cc2)nc(C(=O)O)c(Cl)c1N [Compound 78, 4-Amino-6-(4-bromophenyl)-3-chloro-5-methylpicolinic acid]",0 to 29

# Same assay, conditions: post-emergence, 336 h, ECHCG: barnyardgrass (Echinochloa crus-galli), application rate 140 g ai/ha, read-out: Visual Growth Reduction (%) 14 Days After Application, ECHCG
row,Structure (SMILES),pest or weed control at 140 g/ha [%]
1,"Cc1c(-c2ccc(Br)cc2)nc(C(=O)O)c(Cl)c1N [Compound 78, 4-Amino-6-(4-bromophenyl)-3-chloro-5-methylpicolinic acid]",0 to 29

# Same assay, conditions: post-emergence, 336 h, ORYSA: rice (Oryza sativa), application rate 70 g ai/ha, read-out: Visual Growth Reduction (%) 14 Days After Application, ORYSA
row,Structure (SMILES),pest or weed control at 70 g/ha [%]
1,"Cc1c(-c2ccc(Br)cc2)nc(C(=O)O)c(Cl)c1N [Compound 78, 4-Amino-6-(4-bromophenyl)-3-chloro-5-methylpicolinic acid]",0 to 29

# Same assay, conditions: post-emergence, 336 h, ORYSA: rice (Oryza sativa), application rate 140 g ai/ha, read-out: Visual Growth Reduction (%) 14 Days After Application, ORYSA
row,Structure (SMILES),pest or weed control at 140 g/ha [%]
1,"Cc1c(-c2ccc(Br)cc2)nc(C(=O)O)c(Cl)c1N [Compound 78, 4-Amino-6-(4-bromophenyl)-3-chloro-5-methylpicolinic acid]",0 to 29

# Same assay, conditions: post-emergence, 336 h, SETFA: giant foxtail (Setaria faberi), application rate 70 g ai/ha, read-out: Visual Growth Reduction (%) 14 Days After Application, SETFA
row,Structure (SMILES),pest or weed control at 70 g/ha [%]
1,"Cc1c(-c2ccc(Br)cc2)nc(C(=O)O)c(Cl)c1N [Compound 78, 4-Amino-6-(4-bromophenyl)-3-chloro-5-methylpicolinic acid]",45 to 59

# Same assay, conditions: post-emergence, 336 h, SETFA: giant foxtail (Setaria faberi), application rate 140 g ai/ha, read-out: Visual Growth Reduction (%) 14 Days After Application, SETFA
row,Structure (SMILES),pest or weed control at 140 g/ha [%]
1,"Cc1c(-c2ccc(Br)cc2)nc(C(=O)O)c(Cl)c1N [Compound 78, 4-Amino-6-(4-bromophenyl)-3-chloro-5-methylpicolinic acid]",60 to 74

# Same assay, conditions: post-emergence, 336 h, SORVU: grain sorghum (Sorghum vulgare), application rate 70 g ai/ha, read-out: Visual Growth Reduction (%) 14 Days After Application, SORVU
row,Structure (SMILES),pest or weed control at 70 g/ha [%]
1,"Cc1c(-c2ccc(Br)cc2)nc(C(=O)O)c(Cl)c1N [Compound 78, 4-Amino-6-(4-bromophenyl)-3-chloro-5-methylpicolinic acid]",0 to 29

# Same assay, conditions: post-emergence, 336 h, SORVU: grain sorghum (Sorghum vulgare), application rate 140 g ai/ha, read-out: Visual Growth Reduction (%) 14 Days After Application, SORVU
row,Structure (SMILES),pest or weed control at 140 g/ha [%]
1,"Cc1c(-c2ccc(Br)cc2)nc(C(=O)O)c(Cl)c1N [Compound 78, 4-Amino-6-(4-bromophenyl)-3-chloro-5-methylpicolinic acid]",0 to 29

# Same assay, conditions: post-emergence, 336 h, ZEAMX: maize, corn (Zea mays), application rate 70 g ai/ha, read-out: Visual Growth Reduction (%) 14 Days After Application, ZEAMX
row,Structure (SMILES),pest or weed control at 70 g/ha [%]
1,"Cc1c(-c2ccc(Br)cc2)nc(C(=O)O)c(Cl)c1N [Compound 78, 4-Amino-6-(4-bromophenyl)-3-chloro-5-methylpicolinic acid]",0 to 29

# Same assay, conditions: post-emergence, 336 h, ZEAMX: maize, corn (Zea mays), application rate 140 g ai/ha, read-out: Visual Growth Reduction (%) 14 Days After Application, ZEAMX
row,Structure (SMILES),pest or weed control at 140 g/ha [%]
1,"Cc1c(-c2ccc(Br)cc2)nc(C(=O)O)c(Cl)c1N [Compound 78, 4-Amino-6-(4-bromophenyl)-3-chloro-5-methylpicolinic acid]",30 to 44

# Tested on: not given
# Assay: not given
# Conditions: not given
row,melting point [°C],Structure (SMILES)
1,185.5 to 187,"Cc1c(-c2ccc(Br)cc2)nc(C(=O)O)c(Cl)c1N [Compound 78, 4-Amino-6-(4-bromophenyl)-3-chloro-5-methylpicolinic acid]"
